Measurements published in patent US20220221458A1, “NOROVIRUS-BINDING PEPTIDE” (Kao Corporation, priority 2019, published 2022).

What follows are substances tested on norovirus VLPs (GII.4, GII.3, GII.17) (assay: In vitro selection by cDNA display against VLPs with appearance frequency analysis of sequences). Conditions: count among peptide aptamer sequences obtained after in vitro selection cycles (7 cycles GII.4, 5 cycles GII.3 and GII.17).
Protocol: The constructed cDNA display and VLPs were incubated in 100 μL of a dialysis selection buffer (20 mM HEPES (pH 7.4), 150 mM NaCl, and 0.05% s Tween 20) at the concentrations shown in Table 9 below at 25° C. for 30 minutes. Subsequently, the resultant was diluted to 1 mL with the dialysis selection buffer, and was put in Float-A-Lyzer G2 Dialysis Device CE, 1000kD MWCO (manufactured by Spectrum Laboratories, Inc.) and was dialyzed with 1 L of the dialysis selection buffer as the external solution at 25° C. During the dialysis, the external solution was replaced with new one 3 times every 2 hours, and the dialysis was performed overnight (for 8 hours) after the 4th replacement. The dialysis product was concentrated with Amicon Ultra 100K (manufactured by Merck Millipore S.A.S.) at 14,000×g for 5 minutes.
To an immunoplate (C-BOTTOM, CLEAR, MICROLON (registered trademark), HIGH BINDING, manufactured by Greiner Bio-One), 100 μL of 3 μg/mL GII.3 or GII.17 VLP solution was added and immobilization was performed at 4° C. overnight. Subsequently, the solution was discarded, and 200 μL of a blocking agent (EMD Millipore™ Blok™ NSB Blocking agents, Thermo Fisher Scientific) was added, followed by gently stirring at room temperature for 2 hours for blocking. On this occasion, wells not immobilizing the VLP were also subjected to similar blocking to be used in preselection.
The solution was discarded from the wells, the wells were washed with 200 μL of a wash buffer (10 mM Hepes (pH 7.4), 150 mM NaCl, and 0.05% Tween 20) three times, and 100 μL of cDNA display (constructed from 1.5 pmol of mRNA-linker) was then put in the wells not immobilizing the VLP, followed by gently stirring at room temperature for 30 minutes to perform preselection. Subsequently, the supernatant containing cDNA display that had not bound to the blocking agent was put in the wells immobilizing the VLP, followed by gently stirring at room temperature for 30 minutes to be bound to the VLP. The supernatant was discarded, washing with 100 μL of the wash buffer was performed four times, and 100 μL of a 5′ SDS solution was then added, followed by incubation at 50° C. for 15 minutes to elute the bound cDNA display.
Subsequently, the VLP-cDNA display complex obtained above was diluted to 100 μL with a dialysis selection buffer, and 10 μL of a coprecipitating agent (Quick-Precip Plus Solution, manufactured by EdgeBio) and 220 μL of 100% ethanol were added, followed by centrifugation at 20,000×g for 5 minutes. Subsequently, the supernatant was discarded, and 1 mL of 70, ethanol was added for rinsing. […] The PCR program was (a) 98° C. for 2 minutes, (b) 95° C. for 20 seconds, (c) 69° C. for 20 seconds, (d) 72° C. for 20 seconds (steps (b) to (d) were performed 25 cycles), and (e) 72° C. for 1 minute.
After the in vitro selection cycle (7 cycles for GII.4 and 5 cycles for GII.3 and GII.17 based on the libraries of 7 cycles obtained by GII.4 dialysis), a sequence library was prepared by the following method, and the sequence information was analyzed. The preparation of the sequence library and the sequencing were performed according to the 16S Metagenomic Sequencing Library Preparation protocol (manufactured by Illumina, Inc.).
The Fastq file of the obtained sequence was converted to a Fasta file, all of the obtained sequences were simultaneously translated from the first base of the start codon (ATG) at position 115 to the third base of the cysteine codon (TGC) at position 156 of the library sequence (SEQ ID NO: 279) using software MEGA.

Row | Substance | Appearance Frequency
1 | 166 (ATITVW; Designed peptide) [compound 166] | 6
2 | 68 (SSPRSH; Designed peptide) [compound 68] | 9
3 | 21 (GKFFCH; Designed peptide) [compound 21] | 12
4 | 125 (LASMWR; Designed peptide) [compound 125] | 7
5 | 83 (KTRAIN; Designed peptide) [compound 83] | 8
6 | 195 (HSSLVT; Designed peptide) [compound 195] | 6
7 | 251 (SKYTAL; Designed peptide) [compound 251] | 6
8 | 126 (LFHPWV; Designed peptide) [compound 126] | 7
9 | 139 (RFLMRH; Designed peptide) [compound 139] | 7
10 | 70 (AVGCHV; Designed peptide) [compound 70] | 8
11 | 8 (PCSYFS; Designed peptide) [compound 8] | 17
12 | 35 (TKRQNL; Designed peptide) [compound 35] | 11
13 | 44 (QSSKKF; Designed peptide) [compound 44] | 10
14 | 150 (STVRHR; Designed peptide) [compound 150] | 7
15 | 233 (RGTMWL; Designed peptide) [compound 233] | 6
16 | 40 (FPFGST; Designed peptide) [compound 40] | 10
17 | 246 (SAMFAS; Designed peptide) [compound 246] | 6
18 | 80 (HICIRR; Designed peptide) [compound 80] | 8
19 | 43 (HIHGRE; Designed peptide) [compound 43] | 10
20 | 206 (KSMNNG; Designed peptide) [compound 206] | 6
21 | 235 (RHTQTL; Designed peptide) [compound 235] | 6
22 | 213 (MQFELV; Designed peptide) [compound 213] | 6
23 | 265 (WVFVKH; Designed peptide) [compound 265] | 6
24 | 258 (TNYLSF; Designed peptide) [compound 258] | 6
25 | 116 (HHRLHG; Designed peptide) [compound 116] | 7
26 | 50 (VIEMLD; Designed peptide) [compound 50] | 10

Row | Substance | Appearance Frequency
27 | 12 (LNWSRS; Designed peptide) [compound 12] | 15
28 | 42 (GNSPYT; Designed peptide) [compound 42] | 10
29 | 97 (VISLET; Designed peptide) [compound 97] | 8
30 | 202 (ILTHQH; Designed peptide) [compound 202] | 6
31 | 99 (VYIMNH; Designed peptide) [compound 99] | 8
32 | 228 (QRVSFL; Designed peptide) [compound 228] | 6
33 | 85 (LHMKPI; Designed peptide) [compound 85] | 8
34 | 178 (GAKELS; Designed peptide) [compound 178] | 6
35 | 18 (SRWCLS; Designed peptide) [compound 18] | 13
36 | 93 (THACAH; Designed peptide) [compound 93] | 8
37 | 138 (QLHRHK; Designed peptide) [compound 138] | 7
38 | 86 (MSTHKV; Designed peptide) [compound 86] | 8
39 | 257 (TNRTVS; Designed peptide) [compound 257] | 6
40 | 16 (LSKHSR; Designed peptide) [compound 16] | 13
41 | 134 (NPKAHL; Designed peptide) [compound 134] | 7
42 | 24 (LRSGVN; Designed peptide) [compound 24] | 12
43 | 208 (LLGKPV; Designed peptide) [compound 208] | 6
44 | 124 (KVHGST; Designed peptide) [compound 124] | 7
45 | 232 (RGHPST; Designed peptide) [compound 232] | 6
46 | 215 (NAVSLK; Designed peptide) [compound 215] | 6
47 | 77 (GMLRFP; Designed peptide) [compound 77] | 8
48 | 65 (SGTMQE; Designed peptide) [compound 65] | 9
49 | 33 (SRHCVP; Designed peptide) [compound 33] | 11
50 | 19 (CTYVVE; Designed peptide) [compound 19] | 12
51 | 63 (REESFS; Designed peptide) [compound 63] | 9
52 | 76 (GGSHST; Designed peptide) [compound 76] | 8

Row | Substance | Appearance Frequency
53 | 109 (GCHYQF; Designed peptide) [compound 109] | 7
54 | 154 (TVLHHR; Designed peptide) [compound 154] | 7
55 | 100 (WDRPAF; Designed peptide) [compound 100] | 8
56 | 90 (SSCVMP; Designed peptide) [compound 90] | 8
57 | 141 (RHKVHH; Designed peptide) [compound 141] | 7
58 | 84 (LASSGH; Designed peptide) [compound 84] | 8
59 | 71 (CNLIAK; Designed peptide) [compound 71] | 8
60 | 101 (YEGRND; Designed peptide) [compound 101] | 8
61 | 196 (HVGLDK; Designed peptide) [compound 196] | 6
62 | 269 (YYPDHP; Designed peptide) [compound 269] | 6
63 | 30 (DRYSAW; Designed peptide) [compound 30] | 11
64 | 26 (TWDLTL; Designed peptide) [compound 26] | 12
65 | 143 (RRCKLL; Designed peptide) [compound 143] | 7
66 | 122 (ISRRGH; Designed peptide) [compound 122] | 7
67 | 148 (RTGLLS; Designed peptide) [compound 148] | 7
68 | 11 (GHPNPR; Designed peptide) [compound 11] | 15
69 | 57 (HVRPFY; Designed peptide) [compound 57] | 9
70 | 267 (YKASHG; Designed peptide) [compound 267] | 6
71 | 39 (EMSRHC; Designed peptide) [compound 39] | 10
72 | 10 (GHHVSV; Designed peptide) [compound 10] | 15
73 | 110 (GFAISR; Designed peptide) [compound 110] | 7
74 | 73 (EWAVSK; Designed peptide) [compound 73] | 8
75 | 34 (SVHTHR; Designed peptide) [compound 34] | 11
76 | 147 (RSSSGR; Designed peptide) [compound 147] | 7
77 | 252 (SRSHWG; Designed peptide) [compound 252] | 6
78 | 200 (IHSPQK; Designed peptide) [compound 200] | 6

Row | Substance | Appearance Frequency
79 | 2 (CLSNLA; Designed peptide) [compound 2] | 21
80 | 241 (RSSAKR; Designed peptide) [compound 241] | 6
81 | 188 (HFRRRV; Designed peptide) [compound 188] | 6
82 | 114 (GSLDIM; Designed peptide) [compound 114] | 7
83 | 187 (HDYVSE; Designed peptide) [compound 187] | 6
84 | 218 (NGHSHA; Designed peptide) [compound 218] | 6
85 | 53 (ACRSAF; Designed peptide) [compound 53] | 9
86 | 82 (ILGGHS; Designed peptide) [compound 82] | 8
87 | 173 (EEKTRR; Designed peptide) [compound 173] | 6
88 | 5 (RCSHLR; Designed peptide) [compound 5] | 18
89 | 212 (MDHEMF; Designed peptide) [compound 212] | 6
90 | 128 (LWNMYD; Designed peptide) [compound 128] | 7
91 | 156 (VRNLVH; Designed peptide) [compound 156] | 7
92 | 113 (GMSCGI; Designed peptide) [compound 113] | 7
93 | 185 (GRNAGR; Designed peptide) [compound 185] | 6
94 | 38 (AGYPRY; Designed peptide) [compound 38] | 10
95 | 190 (HKASHW; Designed peptide) [compound 190] | 6
96 | 87 (SIESCL; Designed peptide) [compound 87] | 8
97 | 152 (SWPFCT; Designed peptide) [compound 152] | 7
98 | 216 (NCRTRP; Designed peptide) [compound 216] | 6
99 | 75 (FTMHTN; Designed peptide) [compound 75] | 8
100 | 250 (SKVIRW; Designed peptide) [compound 250] | 6
101 | 168 (DKVCKN; Designed peptide) [compound 168] | 6
102 | 164 (AKQRFT; Designed peptide) [compound 164] | 6
103 | 130 (NASRFY; Designed peptide) [compound 130] | 7
